The record followed here is US11072632B2, “Inhibitors of 17β-HSD1, 17β-HSD3 and 17β-HSD10” (UNIVERSITÉ LAVAL, priority 2011, dated 2021).

Where two headings read alike, the source gives them in different places.

The subject of one data set is MCF-7 cells. As to the kind of experiment: Estrogenic activity in MCF-7 cells. It counts as cell-based, human. Conditions: 7 days, concentrations up to 5 μM. How it is done:
MCF-7 cells were seeded with medium supplemented with insulin (50 ng/mL) and 5% dextran-coated charcoal treated FBS rather than 10% FBS to remove remaining hormones. Aliquots (100 μL) of the cell suspension were seeded in 96-well plates (3000 cells/well). […] Cells were grown either in the absence or presence of the compounds over a period of 7 days. Quantification of cell growth was determined by using the CellTiter 96®Aqueous Solution Cell Proliferation Assay (Promega, Nepean, ON, Canada) following the manufacturer's instructions. To determine the proliferative (estrogenic) activity, the cells were grown in the absence (control fixed as 100%) or presence of the tested compounds at the indicated concentrations.

The nature of data set [1]: Plasma concentration of inhibitor after a single subcutaneous injection. Conditions: rat, in vivo, sc. The method, then:
Six week-old male Sprague-Dawley rats weighing approximately 220 g were obtained from Charles-River, Inc. (St-Constant, Qc., Canada). The animals were housed 3 per cage. A pharmacokinetic study was carried out following one subcutaneous (s.c.) injection of the inhibitor at one concentration (2.3 mg/kg of body weight in 0.5 mL of vehicle fluid). The inhibitor was first dissolved in ethanol (EtOH) and thereafter we added propylene glycol (PG) to obtain a final concentration of EtOH of 8%. During this experiment, the rats were housed individually and were fasted for 8 h before inhibitor injection but allowed free access to water. Blood samples for determination of inhibitor plasma concentration were collected at the jugular vein (0.4 mL by animal) at target intervals of 3, 7, 12 and 24 h post-dose for Compound V and 3 and 12 h for CC-156, from three rats per time point. After the collection at 7 h, a replacement fluid (0.9% sodium chloride injection USP) was injected in the rat. Blood samples were collected into Microvette potassium-EDTA (ethylenediamine tetraacetic acid)-coated tube (Sarstedt, Aktiegesellchaft & Co, Germany) and centrifuged at 3200 rpm for 10 minutes at 4° C. The plasma was collected and stored at −80° C. until analyzed by liquid chromatography/mass spectrometry/mass spectrometry (LC/MS/MS) analysis.
The concentration of the inhibitors (Compounds I and V) was determined by LC/MS/MS analysis using a procedure developed at CHUQ (CHUL)-Research Center (Québec, Qc, Canada). Briefly, for extraction from serum, 100 μL of serum sample is transferred to individual tubes and 600 μL of ammonium acetate (1 mM) is added. A methanolic solution (50 μL) containing a steroidal internal standard is then added to each tube. Samples are transferred on Strata-X SPE columns (Phenomenex, Torrance, Calif., USA), which have been conditioned with 2 mL of methanol and 2 mL of water. Each column is washed with 2 mL of methanol:water (10:90, v/v). The inhibitor is then eluted with 5 mL of methanol containing 5 mM ammonium acetate. Methanol is evaporated at 45° C. under inert atmosphere and the residue dissolved in 100 μL of methanol:water (85:15, v/v). For the steroid analysis, the HPLC system uses a 75×4.6-mm, 3 μm reversed-phase Luna Phenyl-Hexyl column (Phenomenex, Torrance, Calif., USA) at a flow rate of 0.8 mL/min. The inhibitor is detected using an API 3000 mass spectrometer, equipped with TurbolonSpray (Applied Biosystems, Canada). ESI in positive ion mode was used. The area under the curve (AUC) was calculated using the linear trapezoidal rule.

For the next data set, the target named is T1, CYP3A4 (Homo sapiens, UniProt P08684).
T1 construct: purchased BD Biosciences
T1 sequence (P08684 whole entry): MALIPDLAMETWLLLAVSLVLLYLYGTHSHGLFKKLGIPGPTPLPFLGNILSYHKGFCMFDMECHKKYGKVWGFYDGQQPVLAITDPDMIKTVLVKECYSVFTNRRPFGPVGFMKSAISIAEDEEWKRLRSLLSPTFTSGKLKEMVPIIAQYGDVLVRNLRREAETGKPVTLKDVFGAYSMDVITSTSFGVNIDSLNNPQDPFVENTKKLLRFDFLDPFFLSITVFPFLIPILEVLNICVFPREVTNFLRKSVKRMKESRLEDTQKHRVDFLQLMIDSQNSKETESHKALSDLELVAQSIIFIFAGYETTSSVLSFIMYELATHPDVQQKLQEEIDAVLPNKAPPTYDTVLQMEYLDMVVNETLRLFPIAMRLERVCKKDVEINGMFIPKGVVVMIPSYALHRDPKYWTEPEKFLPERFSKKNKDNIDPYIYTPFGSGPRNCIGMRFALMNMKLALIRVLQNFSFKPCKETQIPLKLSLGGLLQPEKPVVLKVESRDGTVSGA
As to the kind of experiment: Inhibition of CYP3A4 (P450 Inhibition Kit CYP3A4/DBF). In kind it is in vitro ADME.

The target of another data set is T2, 17β-HSD1 (Homo sapiens, UniProt P14061).
T2 construct: endogenous in cells; host or cells: T-47D
T2 sequence (P14061 1-328): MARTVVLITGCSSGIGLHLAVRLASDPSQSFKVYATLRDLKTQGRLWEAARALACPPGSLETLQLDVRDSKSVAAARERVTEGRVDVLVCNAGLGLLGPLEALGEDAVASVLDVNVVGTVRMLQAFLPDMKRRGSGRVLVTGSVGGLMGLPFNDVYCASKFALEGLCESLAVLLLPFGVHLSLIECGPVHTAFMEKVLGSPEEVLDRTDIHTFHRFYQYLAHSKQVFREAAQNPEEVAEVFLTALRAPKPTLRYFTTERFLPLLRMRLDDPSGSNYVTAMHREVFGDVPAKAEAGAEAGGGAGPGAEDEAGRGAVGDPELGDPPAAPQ
As to the kind of experiment: Inhibition of 17β-HSD1 in T-47D intact cells (E1 into E2). As to conditions: for inhibition at 0.01 µM: read-out: Inhibition % (0.01 μM). It counts as cell-based. In outline: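 Intact T-47D cells in medium with insulin and 5% charcoal-stripped FBS were incubated with inhibitor (0.1% ethanol) and 60 nM [14C]-estrone, in triplicate. Steroids were ether-extracted and separated by TLC, and [14C]-E1 to E2 conversion was quantified by radioimaging.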

In the case of `C[C@]12CC[C@@H]3c4ccc(O)cc4CC[C@H]3[C@@H]1C[C@H](Cc1cccc(C(N)=O)c1)[C@@H]2O` [Compound I, 16β-(m-carbamoylbenzyl)estradiol, reference compound], the “estrogenic activity on MCF-7 cells (FIG. 1)” value with MCF-7 cells was “strongly stimulated the estrogen sensitive MCF-7 cells”. The “time at which maximum plasma concentration (Cmax) was attained” value in data set [1] (2.3 mg/kg) is listed as 3 h. The IC50 on CYP3A4 (read-out: IC50 on CYP3A4) stood at 1.52 ± 0.29 µM. The inhibition at 0.01 µM at 17β-HSD1 (T47D, [14C]-E1 (60 nM) into [14C]-E2, T-47D intact cells, 0.01 μM) came out at 35%. Also, at 17β-HSD1 (T47D, [14C]-E1 (60 nM) into [14C]-E2, T-47D intact cells, 0.1 μM, read-out: Inhibition % (0.1 μM)), the inhibition at 0.1 µM was found to be 66%.

As for `C[C@]12CC[C@@H]3c4ccc(CCBr)cc4CC[C@H]3[C@@H]1C[C@H](Cc1cccc(C(N)=O)c1)[C@@H]2O` [Compound V, 3-{[(16β,17β)-3-(2-bromoethyl)-17-hydroxyestra-1(10),2,4-trien-16-yl]methyl}benzamide], in the data set with MCF-7 cells, the “estrogenic activity on MCF-7 cells (FIG. 1)” value was “no estrogenicity”. In addition, in data set [1] (male, Sprague-Dawley, s.c. 2.3 mg/kg, 7 h), the concentration at 7 h is 73.8 ng/mL. Besides, the concentration at 12 h in data set [1] (male, Sprague-Dawley, s.c. 2.3 mg/kg, 12 h) was found to be 50.7 ng/mL. Further, in data set [1] (male, Sprague-Dawley, s.c. 2.3 mg/kg, 24 h), the concentration at 24 h came to 11.7 ng/mL. Also, the AUC(0-t) in data set [1] (male, Sprague-Dawley, s.c. 2.3 mg/kg, read-out: AUC0-24 h) is 1150 ng·h/mL. Also, the 50% inhibitory concentration (IC50) came out at 4.06 ± 0.57 µM against CYP3A4 and 0.068 µM against 17β-HSD1 (T-47D intact cells, [14C]-E1 60 nM). Further, on 17β-HSD1 (T47D), the inhibition at 0.01 µM stood at 23%. Besides, the inhibition at 0.1 µM on 17β-HSD1 (T47D, read-out: Inhibition % (0.1 μM)) worked out at 49%; on 17β-HSD1 (T47D, read-out: Inhibition (0.1 μM)), 56%. For the same compound, the inhibition at 1 µM at 17β-HSD1 (T47D, read-out: Inhibition (1 μM)) is 89%.
